Assay [1] has as its system CD20-expressing Raji-luc tumor cells. Conditions: NOD-SCID mice injected with Raji-luc tumor cells and PBMCs; even in the presence of an excess of IgG1-RTX-FEAR; cited from earlier work.
Assay [2] concerns R/R DLBCL eligible for ASCT. It is filed as in vivo, human. To be noted: in combination with R-DHAX/C, preliminary. As to the method: The trial is conducted in 2 parts: dose escalation (Part 1) and expansion (Part 2). Subjects participate in only one part. Both parts consist of a screening period, a treatment period, a safety follow-up period, and a survival follow-up period.
Epcoritamab is initially be administered in combination with R-DHAX/C in a 3-subject cohort. DLTs are evaluated during the first 28 days.
Dexamethasone (40 mg) is administered intravenously or orally on days 1-4 of a cycle once every 3 weeks (Q3W) for cycles 1-3. Cytarabine (2 g/m^2) is administered intravenously on day 1 (usually over 3 hours), repeated after 12 hours (may result in a second dose on day 2 depending on timing of first dose), once every 3 weeks (Q3W) for cycles 1-3. […] Carboplatin (for DHAC) (AUC=5 mg/ml/min; Calvert's formula) is administered intravenously on day 1 once every 3 weeks (Q3W) for cycles 1-3.
CRS is graded according to the ASTCT grading for CRS (Tables 6 and 7), and for treatment of CRS, subjects should receive supportive care. […]

The target in the next assay is T1, CD20 (Homo sapiens, UniProt P11836).
T1 sequence (P11836 1-297): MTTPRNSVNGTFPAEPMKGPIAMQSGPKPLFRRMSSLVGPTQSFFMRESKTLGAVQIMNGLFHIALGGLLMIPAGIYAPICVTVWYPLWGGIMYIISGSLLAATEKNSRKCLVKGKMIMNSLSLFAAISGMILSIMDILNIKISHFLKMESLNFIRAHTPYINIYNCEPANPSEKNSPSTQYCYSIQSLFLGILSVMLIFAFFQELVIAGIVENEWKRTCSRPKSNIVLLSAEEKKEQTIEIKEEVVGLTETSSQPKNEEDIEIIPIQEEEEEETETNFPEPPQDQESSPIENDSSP
Conditions: bind to a different epitope; cited from earlier work.

Where two headings read alike, the source gives them in different places.

Regarding “Epcoritamab: IgG1 bispecific CD3×CD20 antibody; heavy and light chain pairs SEQ ID NOs: 24 and 25, and 26 and 27; CAS 2134641-34-0”, the “tumor growth in the xenograft model” value in assay [1] is “effectively reduce tumor growth”. Besides, the responders observed in assay [2] (escalation phase, as of Sep. 8, 2021, 22 patients dosed in total) is listed as 4; in assay [2] (expansion phase 48 mg, as of Sep. 8, 2021, response data not completely entered), 0.
In the case of “IgG1-CD20: anti-CD20 antibody of which the CD20 arm of epcoritamab is derived”, the “competition for CD20 binding” value with CD20 is given as “compete for CD20 binding”.

(Values after patent US11548952B2, “Bispecific antibody against CD3 and CD20 in combination therapy for treating diffuse large B-cell lymphoma” (GENMAB A/S, priority 2020, dated 2023).)
